# Assay results from patent publication US20210078983A1, “COMPOSITIONS AND METHODS FOR THE TREATMENT OF CANCER” (Cellix Bio Private Limited, priority 2017, published 2021).
# Several values for one entry are separate records, joined by “and”; a condition that tells them apart may be missing. Equal values may be shown once. Entries after “also recorded” stand apart in the source; their conditions may differ.
# Key:
# [1] = test system: HCT116 human colon cancer xenograft; assay: Anti-tumor activity in HCT116 xenograft in Foxn1 athymic nude mice (study CLBBI1); type: in vivo; conditions: for Percent Tumor Growth Inhibition (% TGI): 5 days/week
# Excerpt: Evaluation of the Anti-Tumor Activity of CLX-155 [(2R,3R,4R,5R)-2-(5-fluoro-4-octanamido-2-oxopyrimidin-1(2H)-yl)-5-methyltetrahydrofuran-3,4-diyl diacetate] in Relation to Capecitabine in HCT116 Xenograft in Foxn1 Athymic Nude Mice Model Study Code: CLBBI1
# The purpose of this study was to evaluate the anti-tumor activity of CLX-155 administered by oral gavage, once daily for 5 days/week (two days off) for three weeks in HCT116 human colon cancer xenograft bearing Foxn1 athymic nude mice. The anti-tumor activity of CLX-155 was compared with capecitabine.
# (§1) Foxn1 athymic nude female mice (7-8 weeks) were implanted with human colon cancer cell line, HCT116 (5 million cells/site) subcutaneously in the dorsal right flank. The animals were randomized (N=10) into different treatment groups as vehicle control, CLX-155 (125, 250 and 500 mg/kg/day) or capecitabine (1000 mg/kg/day) based on the tumor volume, when the subcutaneous tumor reached a volume in the range of 70-170 mm3. The doses were selected based on the results of a 7-day repeated dose range finding toxicity study in Foxn1 nude mice.
# (§2) The animals in the control group were dosed with the formulation used for CLX-155, which consisted of Capryol 90 (32.5% w/v), Polysorbate 80 (2.5% w/v) in Water (q.$) at the dose volume of 8 mL/kg. The Capecitabine formulation was prepared using 0.5% Hydroxypropyl methylcellulose (HPMC E 15) in 40 mM citrate buffer, pH 6.0. Treatment to animals was performed for three consecutive weeks (5 days/week dosing followed by 2 days off). The dose volume was 8 and 10 ml/kg body weight for CLX-155 and capecitabine, respectively. […] Tumor growth inhibition (TGI) was calculated based on the tumor volume on a given day as compared to that on day 1.
# [2] = Mortality, clinical signs and body weight in the HCT116 xenograft study; type: in vivo; conditions: for mortality: N=10, deaths on day 14 and 22
# Method: as §1, §2
structure (smiles),measurement,setting,value
"CCCCCCCC(=O)Nc1nc(=O)n([C@@H]2O[C@H](C)[C@@H](OC(C)=O)[C@H]2OC(C)=O)cc1F [CLX-155, (2R,3R,4R,5R)-2-(5-fluoro-4-octanamido-2-oxopyrimidin-1(2H)-yl)-5-methyltetrahydrofuran-3,4-diyl diacetate]",Percent Tumor Growth Inhibition (% TGI),"[1]; 125 mg/kg/day oral gavage, day 3",49.4%
same,Percent Tumor Growth Inhibition (% TGI),"[1]; 125 mg/kg/day oral gavage, day 5",59.5%
same,Percent Tumor Growth Inhibition (% TGI),"[1]; 125 mg/kg/day oral gavage, day 8",59.8%
same,Percent Tumor Growth Inhibition (% TGI),"[1]; 125 mg/kg/day oral gavage, day 10",56.3%
same,Percent Tumor Growth Inhibition (% TGI),"[1]; 125 mg/kg/day oral gavage, day 12",58.5%
same,Percent Tumor Growth Inhibition (% TGI),"[1]; 125 mg/kg/day oral gavage, day 15",57.8%
same,Percent Tumor Growth Inhibition (% TGI),"[1]; 250 mg/kg/day oral gavage, day 3",83.6%
same,Percent Tumor Growth Inhibition (% TGI),"[1]; 250 mg/kg/day oral gavage, day 5",61.4%
same,Percent Tumor Growth Inhibition (% TGI),"[1]; 250 mg/kg/day oral gavage, day 8",67.7%
same,Percent Tumor Growth Inhibition (% TGI),"[1]; 250 mg/kg/day oral gavage, day 10",66.5%
same,Percent Tumor Growth Inhibition (% TGI),"[1]; 250 mg/kg/day oral gavage, day 12",66.7%
same,Percent Tumor Growth Inhibition (% TGI),"[1]; 250 mg/kg/day oral gavage, day 15",70.4%
same,Percent Tumor Growth Inhibition (% TGI),"[1]; 500 mg/kg/day oral gavage, day 3",51.1%
same,Percent Tumor Growth Inhibition (% TGI),"[1]; 500 mg/kg/day oral gavage, day 5",67.1%
same,Percent Tumor Growth Inhibition (% TGI),"[1]; 500 mg/kg/day oral gavage, day 8",75.3%
same,Percent Tumor Growth Inhibition (% TGI),"[1]; 500 mg/kg/day oral gavage, day 10",75.4%
same,Percent Tumor Growth Inhibition (% TGI),"[1]; 500 mg/kg/day oral gavage, day 12",79.5%
same,Percent Tumor Growth Inhibition (% TGI),"[1]; 500 mg/kg/day oral gavage, day 15",90.6%
same,complete tumor regressions / complete responders (CR),"[1]; 500 mg/kg/day, N=10",Two and 2/10
same,TGI compared with the other drug (in words),[1]; CLX-155 at 500 mg/kg/day,comparable to capecitabine at 1000 mg/kg/day
same,tumor growth inhibition as compared to the vehicle control (in words),[1]; all dose levels tested,"statistically significant, dose dependent tumor growth inhibition at all doses; also recorded: statistically significant, dose dependent tumor growth inhibition at all the dose levels tested; also recorded: dose-dependent inhibition of tumor growth"
"CCCCCOC(=O)Nc1nc(=O)n([C@@H]2O[C@H](C)[C@@H](O)[C@H]2O)cc1F [Capecitabine, reference compound]",CR or PR observed,[1]; 1000 mg/kg/day,no CR or PR observed
same,Percent Tumor Growth Inhibition (% TGI),"[1]; 1000 mg/kg/day, day 3",27.3%
same,Percent Tumor Growth Inhibition (% TGI),"[1]; 1000 mg/kg/day, day 5",46.2%
same,Percent Tumor Growth Inhibition (% TGI),"[1]; 1000 mg/kg/day, day 8",68.0%
same,Percent Tumor Growth Inhibition (% TGI),"[1]; 1000 mg/kg/day, day 10",75.4%
same,Percent Tumor Growth Inhibition (% TGI),"[1]; 1000 mg/kg/day, day 12",80.9%
same,Percent Tumor Growth Inhibition (% TGI),"[1]; 1000 mg/kg/day, day 15",87.7%
same,TGI compared with the other drug (in words),[1]; Capecitabine at 1000 mg/kg/day,comparable to that observed at 500 mg/kg/day of CLX-155
same,Mean % body weight reduction,[2]; 1000 mg/kg/day,−5.9%
same,clinical signs of toxicity,[2]; 1000 mg/kg/day,hunched back and scaly skin
same,mortality,[2]; 1000 mg/kg/day,Two
same,mortality,"[2]; 1000 mg/kg/day, listed as capecitabine",2/10
same,relative toxicity based on mortality and clinical signs of toxicity,[2]; capecitabine 1000 mg/kg/day vs CLX-155 125-500 mg/kg/day,relatively more toxic than CLX-155
